Numbered stars: 1 amine (or outer) side, 2 acyl side, 3 side chain; on linkers, the order of the positions; unused ones are H or OH. Bridge positions count the residues as written; N and C are the ends. Square brackets hold non-standard residues; d marks the D form. Peptide text beside a SMILES is read from it. I, II: the chains in the order shown. * marks the point of attachment. NOTA = O=C(O)CN1CCN(CC(=O)O)CCN(CC(=O)*)CC1; X1 = O=C(CCC(=O)[*:2])NCCOCCOCC(=O)[*:1]; 2Thi = N[C@@H](Cc1cccs1)C(=O)O; Nle = CCCC[C@H](N)C(=O)O; AEEA = NCCOCCOCC(=O)O; βAla = NCCC(=O)O
Experiments:
[1] = system: PC3 tumor; assay: in vivo; parameters: species or system Balb/c nude mice; details: mouse
Description: (§1) Tumor-bearing Balb/c nude mice were injected with 370 to 740 kBq (10 to 20 μCi; 100 μL) of ^64Cu/NOTA-monomer and ^64Cu/NOTA-dimer 2 via the caudal vein and sacrificed with CO2 at different periods of time after injection. Organs of interest were then collected and weighed. -Radioactivity was measured in a gamma counter. The blocking experiments were realized by co-injecting 0.1 μmol of non-radiolabeled peptide. The results were expressed as %ID/g with a minimum of 3 mice for each condition.

[2] = in vivo; parameters: species or system Balb/c nude mice; details: Balb/c nude, mouse, total radioactivity; for tissue to tissue ratio at 0.5 h / tissue to tissue ratio at 2 h: iv
Description: as §1

[3] = format: in vitro ADME; details: 24 h
Description: Plasma and in vivo stability studies were realized as previously described by our group. Briefly, after peptide reconstitution, studies were carried out by incubating the tracers in mouse plasma for a period of 24 h and by injecting around 15 to 25 MBq (400 to 650 μCi; 100 μL) of ^64Cu/peptide to female Balb/c mice; 3 mice per peptide. After 24 h, a portion of the incubation mixtures in plasma or blood samples taken from the back paw were quenched with equal amounts of MeCN, chilled (4°C) and centrifuged, and the supernatant was assayed by HPLC. The stability was also determined by radio-TLC directly from plasma and blood samples without further handling; free ^64Cu and purified radiolabeled peptides were used as standards. The radio-TLCs were eluted on C-18-coated plastic sheets with 0.1 M sodium citrate buffer at pH 5.5 using an instant imager system for the radio-detection.

## CCCC[C@H](NC(=O)[C@H](Cc1cccs1)NC(=O)[C@H](Cc1c[nH]cn1)NC(=O)CCNC(=O)[C@@H](NC(=O)[C@H](C)NC(=O)[C@H](Cc1c[nH]c2ccccc12)NC(=O)[C@H](CCC(N)=O)NC(=O)[C@@H](Cc1ccc(O)cc1)NC(=O)COCCOCCNC(=O)CN1CCN(CC(=O)O)CCN(CC(=O)O)CC1)C(C)C)C(N)=O [^64Cu/NOTA-monomer, metal not drawn] ({NOTA-AEEA}-[dY]QWAV[βAla]H[2Thi][Nle]-NH2)
[1]; Balb/c nude, 0.5 h
  Biodistribution Adrenal: 4.29 ± 1.13 %ID/g
  Biodistribution Blood: 1.35 ± 0.47 %ID/g
  Biodistribution Bone: 0.43 ± 0.46 %ID/g
  Biodistribution Brain: 0.08 ± 0.07 %ID/g
  Biodistribution Fat: 0.65 ± 0.54 %ID/g
  Biodistribution Heart: 1.05 ± 0.91 %ID/g
  Biodistribution Kidney: 10.42 ± 1.29 %ID/g
  Biodistribution Lungs: 1.77 ± 1.28 %ID/g
  Biodistribution Muscle: 0.40 ± 0.33 %ID/g
  Biodistribution Plasma: 2.48 ± 0.63 %ID/g
  Biodistribution Spleen: 1.63 ± 1.82 %ID/g
  Biodistribution Tumor: 1.79 ± 0.46 %ID/g
[1]; Balb/c nude, iv, 0.5 h
  Tumor/kidney ratio: 0.17 ± 0.04
  Tumor/liver ratio: 2.07 ± 1.13
  Tumor/muscle ratio: 7.42 ± 3.17
  Tumor/pancreas ratio: 0.44 ± 0.17
[1]
  Tumor/muscle ratio: 7.42 ± 0.41
[2]; Tumor/blood ratio
  tissue to tissue ratio at 0.5 h: 1.49 ± 0.41
[2]; Biodistribution Liver
  tissue uptake at 0.5 h: 5.38 ± 8.12 %ID/g
[2]; Biodistribution Pancreas
  tissue uptake at 0.5 h: 5.1 ± 2.5 %ID/g
[3]
  Stability in mouse plasma: stable

## CCCC[C@H](NC(=O)[C@H](Cc1cccs1)NC(=O)[C@H](Cc1c[nH]cn1)NC(=O)CCNC(=O)[C@@H](NC(=O)[C@H](C)NC(=O)[C@H](Cc1c[nH]c2ccccc12)NC(=O)[C@H](CCC(N)=O)NC(=O)[C@@H](Cc1ccc(O)cc1)NC(=O)CCC(=O)NCCOCCOCC(=O)N[C@@H](CCCCNC(=O)CN1CCN(CC(=O)O)CCN(CC(=O)O)CC1)C(=O)NCCOCCOCC(=O)NCC(=O)N[C@H](Cc1ccc(O)cc1)C(=O)N[C@@H](CCC(N)=O)C(=O)N[C@@H](Cc1c[nH]c2ccccc12)C(=O)N[C@@H](C)C(=O)N[C@H](C(=O)NCCC(=O)N[C@@H](Cc1c[nH]cn1)C(=O)N[C@@H](Cc1cccs1)C(=O)N[C@@H](CCCC)C(N)=O)C(C)C)C(C)C)C(N)=O [^64Cu/NOTA-dimer 2, metal not drawn] (I: K(NOTA)[AEEA]G[dY]QWAV[βAla]H[2Thi][Nle]-NH2 / II: [dY]QWAV[βAla]H[2Thi][Nle]-NH2; linker I:N-II:N via X1)
[1]; Balb/c nude, 2 h
  Biodistribution Adrenal: 11.56 ± 4.91 %ID/g
  Biodistribution Blood: 1.34 ± 0.15 %ID/g
  Biodistribution Fat: 0.68 ± 0.61 %ID/g
  Biodistribution Lungs: 5.07 ± 1.58 %ID/g
  Biodistribution Pancreas: 13.35 ± 7.38 %ID/g
  Biodistribution Plasma: 2.45 ± 0.27 %ID/g
[1]; Balb/c nude, iv, 2 h
  Tumor/pancreas ratio: 0.36 ± 0.09
[2]; Tumor/blood ratio
  tissue to tissue ratio at 0.5 h: 1.39 ± 0.3
  tissue to tissue ratio at 2 h: 4.09 ± 1.79
[2]; Tumor/kidney ratio
  tissue to tissue ratio at 0.5 h: 0.28 ± 0.09
  tissue to tissue ratio at 2 h: 0.22 ± 0.11
[2]; Tumor/liver ratio
  tissue to tissue ratio at 0.5 h: 0.1 ± 0.01
  tissue to tissue ratio at 2 h: 0.22 ± 0.07
[2]; Tumor/muscle ratio
  tissue to tissue ratio at 0.5 h: 3.95 ± 1.98
  tissue to tissue ratio at 2 h: 4.46 ± 1.86
[2]; Tumor/pancreas ratio
  tissue to tissue ratio at 0.5 h: 0.89 ± 0.11
[2]; Biodistribution Adrenal
  tissue uptake at 0.5 h: 9.23 ± 5.01 %ID/g
[2]; Biodistribution Blood
  tissue uptake at 0.5 h: 3.13 ± 0.67 %ID/g
[2]; Biodistribution Bone
  tissue uptake at 0.5 h: 0.78 ± 0.21 %ID/g
  tissue uptake at 2 h: 0.83 ± 0.19 %ID/g
[2]; Biodistribution Brain
  tissue uptake at 0.5 h: 0.38 ± 0.06 %ID/g
  tissue uptake at 2 h: 0.22 ± 0.05 %ID/g
[2]; Biodistribution Fat
  tissue uptake at 0.5 h: 1.86 ± 0.81 %ID/g
[2]; Biodistribution Heart
  tissue uptake at 0.5 h: 4.42 ± 1.59 %ID/g
  tissue uptake at 2 h: 2.68 ± 0.13 %ID/g
[2]; Biodistribution Kidney
  tissue uptake at 0.5 h: 17 ± 6.24 %ID/g
  tissue uptake at 2 h: 26.4 ± 8.13 %ID/g
[2]; Biodistribution Liver
  tissue uptake at 0.5 h: 41.8 ± 5.58 %ID/g
  tissue uptake at 2 h: 23.1 ± 2.36 %ID/g
[2]; Biodistribution Lungs
  tissue uptake at 0.5 h: 7.22 ± 2.73 %ID/g
[2]; Biodistribution Muscle
  tissue uptake at 0.5 h: 1.59 ± 1.16 %ID/g
  tissue uptake at 2 h: 1.13 ± 0.62 %ID/g
[2]; Biodistribution Pancreas
  tissue uptake at 0.5 h: 4.6 ± 0.57 %ID/g
[2]; Biodistribution Plasma
  tissue uptake at 0.5 h: 5.27 ± 1.27 %ID/g
[2]; Biodistribution Spleen
  tissue uptake at 0.5 h: 5.31 ± 1.43 %ID/g
  tissue uptake at 2 h: 5.5 ± 2.61 %ID/g
[2]; Biodistribution Tumor
  tissue uptake at 0.5 h: 3.95 ± 0.26 %ID/g
  tissue uptake at 2 h: 6.28 ± 2.87 %ID/g
[3]
  Stability in mouse plasma: stable

Reference: PMC3323469, “Comparative study of ^64Cu/NOTA-[D-Tyr^6,βAla^11,Thi^13,Nle^14]BBN(6-14) monomer and dimers for prostate cancer PET imaging” (EJNMMI Research, 2012)
